Measured values: US8962020B2, “Long-acting and controlled release formulations of 2-[(3-chlorophenyl) amino] phenylacetic acid” (Glycadia Inc., priority 2012, dated 2015)

Legend:
[1] = Gastric histopathology following oral administration of 23CPPA in rats for fourteen days; type: in vivo
Description: (§1) Rats (Charles River Laboratories) received 23CPPA orally at dosages of 25 and 75 mg per kg per day for fourteen days. Samples were obtained at timed intervals following administration for measurement of plasma concentrations of 23CPPA and pharmacokinetic analysis, and tissue was histopathologically examined at the end termination of the study period.

[2] = Pharmacokinetics following oral administration of 23CPPA in rats for fourteen days; type: in vivo; details: for Tmax / half-life: rat, plasma
Description: as §1

[3] = Plasma 23CPPA after oral graduated doses of nonformulated 23CPPA to normal men; type: in vivo
Description: Plasma concentrations of 23CPPA were measured in samples obtained at timed intervals after oral administration of graduated doses of nonformulated 23CPPA to normal men.

[4] = pKa (acid dissociation constant); type: physicochemical; details: pharmaceutically acceptable salts of 23CPPA such as potassium; read-out: pKa (logarithm of the acid dissociation constant)

In the case of `O=C(O)Cc1ccccc1Nc1cccc(Cl)c1` [Granule 23CPPA, 2-[(3-chlorophenyl)amino] phenylacetic acid], the “Gastric Histopathology: Edema/inflammation” value ([1]; 25 mg/kg/day for fourteen days) is reported as “Edema/inflammation (20) % animals”, the “Gastric Histopathology: Edema/inflammation” value ([1]; 75 mg/kg/day for fourteen days) is reported as “Edema/inflammation (30) % animals” and the “time of maximum plasma concentration of drug after administration” value ([2]; 25 and 75 mg per kg per day) is reported as 0.25 h. The Tmax ([2]; 25 mg/kg/day for fourteen days) was 0.25 h, the half-life ([2]; 25 mg/kg/day for fourteen days) was 2.3 h and the Tmax ([2]; 75 mg/kg/day for fourteen days) was 0.25 h. For the same compound, the half-life ([2]; 75 mg/kg/day for fourteen days) was 2.3 h, the “Plasma 23CPPA (peak concentration)” value ([3]; relative dose 1) was 7 nmol/mL and the “Plasma 23CPPA (peak concentration)” value ([3]; relative dose 2) was 19 nmol/mL. For the same compound, the “Plasma 23CPPA (peak concentration)” value ([3]; relative dose 5) was 44 nmol/mL, the “Plasma 23CPPA (peak concentration)” value ([3]; relative dose 10) was 64 nmol/mL and the “Plasma 23CPPA (peak concentration)” value ([3]; relative dose 15) was 70 nmol/mL. For the same compound, the “Plasma 23CPPA (peak concentration)” value ([3]; relative dose 20) was 74 nmol/mL and the pKa [4] was 4.
